The structures appear in SMILES notation.

For the assay, the system named is malignant plasma cells. In words: bone marrow aspirates from multiple myeloma patients cultured in r-Bone and treated with pomalidomide. The conditions noted are these: patient bone marrow (n=10) in r-Bone, FIG. 4. It is filed as cell-based, human. The protocol:
This example tested bone marrow aspirated from patients with multiple myeloma (n=10) were cultured in r-Bone system and treated with pomalidomide.

As for `Nc1cccc2c1C(=O)N(C1CCC(=O)NC1=O)C2=O` (stereo not shown) [pomalidomide, Pomalidomide], the “elimination of malignant plasma cells” value is “eliminated malignant plasma cells in a dose dependent manner”.

The values are drawn from patent publication US20190169562A1, “SCREENING OF IMMUNO-MODULATORY THERAPIES” (zPredicta, Inc., priority 2016, published 2019).
